Where a name gives a salt, the structure may show the parent alone. Read-outs that look alike come from different tables or passages of the source.

Series [1] relates to Panc02.13 cells expressing vector only (02.13-WT). The series can be described thus: Kinetic cell growth assay, Panc02.13 cells expressing vector only. In kind it is cell-based, human. The settings on record: Homo sapiens. Put shortly: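 Vector-only Panc02.13 cells plated at low (2-4×10^3) or high (15-20×10^3) density. Compounds at several doses added 24 h after plating. Confluence imaged hourly by Incucyte for 48-144 h or until DMSO controls reached 100%.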

Series [2] relates to Panc02.13 cells expressing YAPS6A construct. Kind of series: Kinetic cell growth assay, Panc02.13 cells expressing YAPS6A. In kind it is cell-based, human. The settings on record: for EC50: Homo sapiens, YAPS6A construct. Put shortly:
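Panc02.13 cells stably transfected with YAPS6A or vector (Blasticidin-selected), plated at 2-4×10^3 (low density) or 15-20×10^3 (high density) cells/well; compounds at several doses added 24 h after plating. Confluence imaged hourly over 48-144h or until DMSO controls reached 100%.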

Series [3] deals with Panc02.13 cells expressing the YAPS6A mutant. Kind of series: 3D spheroid growth assay, Panc02.13 cells expressing YAPS6A. Type of series: cell-based, human. The following applies: YAP activity increased.
For the next series, the system named is Panc02.13 cells. Kind of series: Radiolabeled gemcitabine efflux. In kind it is in vitro ADME, human. The settings on record: counts per μg protein; more in Hippo-ON. As for the experimental part:
Panc02.13 cells expressing GFP or YapS6A plasmid were treated with radiolabeled gemcitabine (0.5 μM) for one hour. Cells were washed twice with PBS and incubated in fresh medium. Medium was collected over the time course of 24 hours and radioactivity was measured using scintillation counter.
It was considered whether the Hippo pathway might affect the efflux of gemcitabine and/or its metabolites. To assess directly gemcitabine efflux in conditioned media of pancreatic cancer cells both radiolabeled gemcitabine and LC-MS/MS-based methods were used. Panc02.13 cells grown in highly crowded conditions (Hippo-ON) pumped out 2-3-fold more radiolabeled gemcitabine (counts per μg protein) compared with cells grown in less crowded conditions (Hippo-OFF) (FIG. 22A). Another pathway of inactivation and export is the enzymatic conversion of gemcitabine to a uracil derivative (2′,2′-difluorodeoxyuridine, dFdU) by deamination catalyzed by cytidine deaminase (CDA)(Veltkamp et al., 2008). The efflux of gemcitabine and its deaminated metabolite, dFdU was measured by LC-MS/MS (24) in Panc02.13 cells expressing YAPS6A or vector control after gemcitabine treatment (FIG. 22B).
Measuring gemcitabine efflux. […] Medium was collected over the time course of 24 hours and radioactivity was measured using scintillation counter.

The test system of series [4] is Panc02.13-parental xenografts. The series can be described thus: Mouse xenograft, Panc02.13-parental. Type of series: in vivo. The following applies: alternate days for two weeks. As for the experimental part: To assess the gemcitabine response to Hippo pathway inactivation in tumors a mouse xenograft model of pancreatic carcinoma cells and patient-derived xenograft (PDX) models from a variety of solid tumors including human cancers from non-small cell lung, esophagus, breast, mesothelium, ovary, colon, head and neck, sarcoma, and cholangiocarcinoma were used (FIG. 30). In mouse xenograft studies, two human pancreatic cancer cell lines (Miapac2 and Panc02.13) expressing GFP or YAPS6A were injected into athymic mice. Both parental or GFP expressing cells grew rapidly, producing palpable tumors in 5-10 days. When the tumors were ˜200 mm^3 (as measured using a caliper), mice were randomized into treatment and control groups. The […] received i.p. saline injections on alternate days for two weeks, and the latter received gemcitabine (20 mg/kg in Miapaca2-YAPS6A and 50 mg/Kg in Panc02.13-YAPS6A cohorts).
Tumorigenicity in Nude Mice. All in vivo experiments were performed using 6-week-old to 8-week-old athymic nude mice. Mice were maintained in laminar flow rooms with constant temperature and humidity. Miapaca2 or Panc02.13 cells were inoculated subcutaneously (s.c.) into each flank of the mice. […] Tumor volumes (V) were calculated using the formula: V=AB2/2 (A, axial diameter; B, rotational diameter). […]

The term EC50 denotes the concentration at which the effect is half-maximal. `Nc1ccn([C@@H]2O[C@H](CO)[C@@H](O)C2(F)F)c(=O)n1` [Gemcitabine, Gemcitabine hydrochloride]: the EC50 was found to be 1100 nM in series [1] (high density, read-out: High density (EC50, nM) 02.13-WT); 1.6 nM in series [1] (low density, read-out: Low density (EC50, nM) 02.13-WT); 17 nM in series [2] (high density, read-out: High density (EC50, nM) 02.13-YAPS6A); 1.7 nM in series [2] (low density, read-out: Low density (EC50, nM) 02.13-YAPS6A). In series [2] (suppression of the Hippo pathway, high cell density), the “Sensitization by expression of YAPS6A” value is reported as “sensitized”. Besides, the “Efficacy in inhibiting cell growth when the Hippo pathway was inhibited” value in series [3] is listed as “increased efficacy in inhibiting cell growth”. For the same compound, the “Radiolabeled gemcitabine pumped out, highly crowded vs less crowded” value in the series with Panc02.13 cells was 2-3 fold. Besides, in series [4], the Growth of xenografts entry is listed as “no affect”.

The record behind these values is patent US20200216906A1, “METHODS AND COMPOSITIONS RELATING TO THE DIAGNOSIS AND TREATMENT OF CANCER” (PRESIDENT AND FELLOWS OF HARVARD COLLEGE, priority 2015, published 2020).
